Biological target: ATP-dependent translocase ABCB1 (Mus musculus, UniProt P21447)
Assay: TP_TRANSPORTER: increase in brain concentration in mdr1a(-/-) mouse
Type: functional, organism-based
Settings: in vivo

Chain of ATP-dependent translocase ABCB1 (P21447 whole entry): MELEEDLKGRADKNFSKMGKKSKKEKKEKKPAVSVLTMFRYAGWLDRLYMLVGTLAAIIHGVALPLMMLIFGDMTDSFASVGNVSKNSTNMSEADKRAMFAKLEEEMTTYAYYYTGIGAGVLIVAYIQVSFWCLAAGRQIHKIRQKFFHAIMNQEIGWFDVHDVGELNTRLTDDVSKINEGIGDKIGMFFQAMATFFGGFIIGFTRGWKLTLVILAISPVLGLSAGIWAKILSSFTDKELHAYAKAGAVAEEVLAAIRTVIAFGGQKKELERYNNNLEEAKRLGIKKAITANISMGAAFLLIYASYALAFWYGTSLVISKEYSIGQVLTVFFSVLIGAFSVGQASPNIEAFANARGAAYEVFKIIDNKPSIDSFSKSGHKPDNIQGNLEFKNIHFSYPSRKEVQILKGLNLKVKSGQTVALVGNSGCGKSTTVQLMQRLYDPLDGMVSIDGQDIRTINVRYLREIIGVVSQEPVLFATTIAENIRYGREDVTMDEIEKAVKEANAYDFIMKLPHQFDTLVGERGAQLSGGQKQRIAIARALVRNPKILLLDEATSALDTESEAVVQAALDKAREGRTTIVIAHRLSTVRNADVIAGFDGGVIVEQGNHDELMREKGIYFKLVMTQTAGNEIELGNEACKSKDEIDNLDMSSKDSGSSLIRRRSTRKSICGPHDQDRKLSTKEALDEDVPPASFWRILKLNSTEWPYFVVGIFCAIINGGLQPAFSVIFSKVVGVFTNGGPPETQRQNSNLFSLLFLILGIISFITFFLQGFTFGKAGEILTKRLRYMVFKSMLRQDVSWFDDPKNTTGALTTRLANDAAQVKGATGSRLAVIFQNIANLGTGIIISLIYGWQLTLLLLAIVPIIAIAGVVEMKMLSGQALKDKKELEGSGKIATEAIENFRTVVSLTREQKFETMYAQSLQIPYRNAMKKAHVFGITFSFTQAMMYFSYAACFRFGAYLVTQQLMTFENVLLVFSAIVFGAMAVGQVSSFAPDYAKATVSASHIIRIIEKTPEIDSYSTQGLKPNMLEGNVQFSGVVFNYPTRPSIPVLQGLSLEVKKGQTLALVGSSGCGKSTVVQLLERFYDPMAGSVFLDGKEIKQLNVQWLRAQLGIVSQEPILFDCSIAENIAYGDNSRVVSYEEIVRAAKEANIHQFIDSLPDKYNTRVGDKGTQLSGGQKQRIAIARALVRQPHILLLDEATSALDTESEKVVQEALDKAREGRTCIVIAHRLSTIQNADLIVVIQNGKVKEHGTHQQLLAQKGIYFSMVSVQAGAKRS

| Structure (SMILES) | Activity |
| --- | --- |
| CN1CC[C@]23c4c5ccc(O)c4O[C@H]2[C@@H](O)C=C[C@H]3[C@H]1C5 [MORPHINE] | substrate [+] |
| C=C[C@H]1C[N@@]2CC[C@H]1C[C@@H]2[C@@H](O)c1ccnc2ccc(OC)cc12 [QUINIDINE] | substrate [+] |

From ChEMBL document CHEMBL2074361, “Effect of mdr1a P-glycoprotein gene disruption, gender, and substrate concentration on brain uptake of selected compounds” (Pharm Res, 2001)
